Experimental data as given in US7494714B2, “Surfaces that resist the adsorption of biological species” (President & Fellows of Harvard College, priority 2000, dated 2009).
Where a SMILES comes first, the peptide text is derived from it.

How the values were obtained:
lysozyme = lysozyme (Gallus gallus, UniProt P00698); experiment: SPR adsorption of lysozyme to SAMs / grafted polymer films; assay type: binding; details: for % ML 3 min / dR/dt on: lysozyme; for % ML 3 min / dR/dt on / % Lys off: single-component SAMs (a) and mixed SAMs (b); for % Lysoff (percent decrease in adsorbed protein during 10 minute PBS wash) / dR/dton lysozyme (maximum initial rate of adsorption) / % MLlys 3 min / % MLlys 30 min: mixed SAM —CONRR′/—CO2H; for % MLlys 3 min: 1 mg/mL lysozyme flowed 3 min; for % MLlys 30 min: 1 mg/mL lysozyme flowed 30 min
Sequence of lysozyme (P00698 19-147): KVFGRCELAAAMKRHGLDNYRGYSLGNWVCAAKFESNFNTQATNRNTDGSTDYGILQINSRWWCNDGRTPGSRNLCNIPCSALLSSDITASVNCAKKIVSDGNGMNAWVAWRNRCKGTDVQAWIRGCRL

fibrinogen = target: T1, fibrinogen (Bos taurus, UniProt P02672+P02676+P12799); experiment: SPR adsorption of fibrinogen to SAMs / grafted polymer films; assay type: binding, bovine; details: for % ML 30 min / dR/dt on / % ML 3 min: fibrinogen; for % ML 30 min / dR/dt on / % Fib off: single-component SAMs (a) and mixed SAMs (b); for % ML 3 min: single-component SAMs (a, RSH) and mixed SAMs (b, RNH2); for % Fiboff (percent decrease in adsorbed protein during 10 minute PBS wash) / dR/dton fibrinogen (maximum initial rate of adsorption) / % MLfib 3 min / % MLfib 30 min: mixed SAM —CONRR′/—CO2H; for % MLfib 3 min: 1 mg/mL fibrinogen flowed 3 min, relative to —CONH(CH2)10CH3/—CO2H SAM; for % MLfib 30 min: 1 mg/mL fibrinogen flowed 30 min
T1 sequence (P02672 20-615): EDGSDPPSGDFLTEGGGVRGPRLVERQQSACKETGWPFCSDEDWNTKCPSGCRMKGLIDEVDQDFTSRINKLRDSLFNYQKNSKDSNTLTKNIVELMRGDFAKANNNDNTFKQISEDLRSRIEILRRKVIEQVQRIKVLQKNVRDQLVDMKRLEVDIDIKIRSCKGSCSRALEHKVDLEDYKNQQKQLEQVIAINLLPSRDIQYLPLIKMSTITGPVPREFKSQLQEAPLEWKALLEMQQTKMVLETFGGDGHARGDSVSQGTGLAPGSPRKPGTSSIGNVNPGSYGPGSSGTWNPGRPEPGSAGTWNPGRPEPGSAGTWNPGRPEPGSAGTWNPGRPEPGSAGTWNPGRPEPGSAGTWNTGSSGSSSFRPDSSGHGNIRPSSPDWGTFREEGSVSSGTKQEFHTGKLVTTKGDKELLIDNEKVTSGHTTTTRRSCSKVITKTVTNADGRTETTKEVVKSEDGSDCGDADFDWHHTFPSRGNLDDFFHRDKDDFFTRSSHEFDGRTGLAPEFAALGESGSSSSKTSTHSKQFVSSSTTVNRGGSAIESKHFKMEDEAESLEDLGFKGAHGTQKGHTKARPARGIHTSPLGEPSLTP
T1 sequence (P02676 1-468): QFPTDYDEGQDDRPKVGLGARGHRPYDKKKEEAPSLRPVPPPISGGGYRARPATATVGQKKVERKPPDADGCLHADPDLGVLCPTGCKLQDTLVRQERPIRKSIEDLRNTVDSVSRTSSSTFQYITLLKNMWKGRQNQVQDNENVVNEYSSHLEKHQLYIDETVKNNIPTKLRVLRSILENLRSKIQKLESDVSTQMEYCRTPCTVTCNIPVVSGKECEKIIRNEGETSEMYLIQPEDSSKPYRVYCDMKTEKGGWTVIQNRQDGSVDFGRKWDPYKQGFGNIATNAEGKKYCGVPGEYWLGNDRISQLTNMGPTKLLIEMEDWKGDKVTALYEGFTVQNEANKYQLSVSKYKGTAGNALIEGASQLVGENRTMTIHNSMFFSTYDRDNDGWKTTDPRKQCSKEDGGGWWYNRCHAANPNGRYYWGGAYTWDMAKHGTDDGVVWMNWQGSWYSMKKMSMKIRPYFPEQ
T1 sequence (P12799 25-444): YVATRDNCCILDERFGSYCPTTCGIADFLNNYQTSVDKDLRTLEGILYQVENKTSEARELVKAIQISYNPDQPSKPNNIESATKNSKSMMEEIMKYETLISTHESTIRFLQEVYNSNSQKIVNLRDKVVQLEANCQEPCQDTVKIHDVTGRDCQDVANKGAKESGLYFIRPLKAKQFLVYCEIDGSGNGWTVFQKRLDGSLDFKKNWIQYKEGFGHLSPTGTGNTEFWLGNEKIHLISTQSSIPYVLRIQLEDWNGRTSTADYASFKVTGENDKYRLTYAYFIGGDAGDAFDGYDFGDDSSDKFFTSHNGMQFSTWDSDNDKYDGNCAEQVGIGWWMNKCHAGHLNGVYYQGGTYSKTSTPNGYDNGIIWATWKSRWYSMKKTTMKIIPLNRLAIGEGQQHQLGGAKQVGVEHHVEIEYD

Compound	% ML 3 min (lysozyme; footnote b (30 minutes)) [%]	% ML 3 min (lysozyme) [%]	dR/dt on (lysozyme) [RU/sec]	% Lysoff (percent decrease in adsorbed protein during 10 minute PBS wash) (lysozyme) [%]	dR/dton lysozyme (maximum initial rate of adsorption) (lysozyme) [RU/sec]	% MLlys 3 min (lysozyme) [%]	% MLlys 30 min (lysozyme) [%]	% Lys off (lysozyme) [%]	% ML 30 min (fibrinogen) [%]	dR/dt on (fibrinogen) [RU/sec]	% ML 3 min (fibrinogen) [%]	% Fiboff (percent decrease in adsorbed protein during 10 minute PBS wash) (fibrinogen) [%]	dR/dton fibrinogen (maximum initial rate of adsorption) (fibrinogen) [RU/sec]	% MLfib 3 min (fibrinogen) [%]	% MLfib 30 min (fibrinogen) [%]	% Fib off (fibrinogen) [%]
CNC[C@H](OC)[C@H](OC)[C@H](OC)[C@H](COC)OC	6.1 ±4	0.4 ±0.4	100 ±70	17 ± 40	100 ± 70	0.4 ± 0.4	6.1 ± 4	17 ±40	2.9 ±1.4	50 ±50	0.8 ±0.5	18 ± 2	50 ± 50	0.8 ± 0.5	2.9 ± 1.4	18 ±2
Nc1ccc(O[C@@H]2O[C@H](CO)[C@@H](O[C@@H]3O[C@H](CO)[C@H](O)[C@H](O)[C@H]3O)[C@H](O)[C@H]2O)cc1				190 ± 16	290 ± 120	3.7 ± 0.1	9.3 ± 0.4					7.4 ± 0.4	130 ± 80	17 ± 1.4	32 ± 0.5	
(CH3)2N(Sar)3-NHCO(CH2)15SH [Entry 5a]	2.0	1.8	33					18	2.0	24	0.7					5.7
COC[C@H](OC)[C@H](OC)[C@H](OC)[C@@H](CN(C)C(=O)CCCCCCCCCCS)OC [Entry 4a]	0.5 ±0.2	0.5 ±0.0	29 ±20					7 ±0	0.7 ±0.1	30 ±14	0.2 ±0.1					66 ±5
NC[C@H](O)[C@H](O)[C@H](O)[C@@H](O)CO				290 ± 3	970 ± 400	13 ± 7	20 ± 0.3					4.8 ± 2	820 ± 500	47 ± 12	68 ± 7	
NCC1COCCOCCOCCOCCOCCO1 (stereo not shown)				14 ± 1.3	75 ± 40	3.9 ± 0.3	9.6 ± 0.5					9.7 ± 0.5	320 ± 110	44 ± 0.9	59 ± 2.3	
N#CCC(N)=C(C#N)C#N				370 ± 20	1900 ± 400	13 ± 0.3	28 ± 3.7					11 ± 0.0	260 ± 70	34 ± 1.1	58 ± 3	
Nc1ccc(O[C@@H]2O[C@H](CO)[C@H](O)[C@H](O)[C@H]2O)cc1				254 ± 10	1300 ± 260	11 ± 1.5	30 ± 3.3					17 ± 0.7	570 ± 250	35 ± 5	49 ± 2.3	
CN(C)C(=O)CNC(=O)CNC(=O)CN [H2N(Gly)3N(CH3)2] (H-Gly-Gly-Gly-NMe2)				630 ± 4	620 ± 130	2.1 ± 1.5	8.8 ± 0.5					21 ± 0.7	55 ± 40	8 ± 1	22 ± 0.4	
CN(C)C(=O)CN				350 ± 10	590 ± 270	7.2 ± 1	15 ± 1					19 ± 0.2	202 ± 80	18 ± 0.5	33 ± 0.5	
CNCC(=O)N(C)C				740 ± 9	290 ± 130	0.2 ± 0.1	2.4 ± 0.3					28 ± 0.7	50 ± 23	1.0 ± 0.0	9.1 ± 0.3	
N#CCNCC#N [HN(CH2CN)2]				110 ± 1	2200 ± 500	36 ± 0.5	92 ± 0.3					7.9 ± 0.9	2200 ± 500	54 ± 3.8	73 ± 3	
CN(CCN(C)P(=O)(N(C)C)N(C)C)C(=O)CCCCCCCCCCS [Entry 1a]	17 ±0.3	4.5 ±0.1	330 ±110					240 ±2	37 ±2	83 ±40	13 ±0.2					29 ±0.4
